Consider 8 compounds from ChEMBL document CHEMBL5321231, “Synthesis, antiviral activity, and computational study of β-d-xylofuranosyl nucleoside phosphonates” (Eur J Med Chem, 2023).

SMILES strings stand for the structures. The source made the active and inactive calls. The calls are words filed in the database; no cut-off is given here. Some results are limits rather than exact numbers.

Series [1] is described as follows: Cytotoxicity against human RD cells assessed as reduction in cell viability by neutral red dye based spectrophotometric analysis. It counts as toxicity.
Series [2] is described as follows: Cytotoxicity against human RD cells assessed as reduction in cell viability by visual analysis. It counts as toxicity, cell-based.
Series [3] deals with Measles morbillivirus. In words: Antiviral activity against MeV CC strain infected in African green monkey Vero 76 cells assessed as reduction in virus induced cytopathic effect incubated for 6 days by neutral red dye based spectrophotometric analysis. Format: functional, organism-based. As to conditions: Vero 76, 144 h. In general terms: Damage to the host cells serves as the signal in cytopathic effect assays.

The nature of series [4]: Cytotoxicity against African green monkey Vero 76 cells assessed as reduction in cell viability by visual analysis. It counts as toxicity, cell-based. As to conditions: chlorocebus sabaeus.
The nature of series [5]: Selectivity index, ratio of CC50 for cytotoxicity against African green monkey Vero 76 cells to EC50 for antiviral activity against MeV CC strain infected in African green monkey Vero 76 cells by neutral red dye based spectrophotometric analysis. It counts as toxicity, cell-based. The conditions noted are these: read-out: Ratio CC50/EC50.
For series [6], the system named is Measles morbillivirus. In words: Antiviral activity against MeV CC strain infected in African green monkey Vero 76 cells assessed as reduction in virus induced cytopathic effect incubated for 6 days by visual analysis. Format: functional, organism-based. As to conditions: Vero 76, 144 h.
A short description of series [7]: Cytotoxicity against African green monkey Vero 76 cells assessed as reduction in cell viability by neutral red dye based spectrophotometric analysis. Format: toxicity. The conditions noted are these: chlorocebus sabaeus.
Series [8] can be described thus: Selectivity index, ratio of CC50 for cytotoxicity against African green monkey Vero 76 cells to EC50 for antiviral activity against MeV CC strain infected in African green monkey Vero 76 cells by visual analysis. Format: toxicity, cell-based. As to conditions: read-out: Ratio CC50/EC50.
The subject of series [9] is Influenza A virus. In words: Antiviral activity against influenza A virus H1N1 California/07/2009 infected in dog MDCK cells assessed as reduction in virus induced cytopathic effect incubated for 6 days by neutral red dye based spectrophotometric analysis. Format: functional, organism-based. The conditions noted are these: time 6.0 day.
Series [10] has as its system Hepatitis B virus. In words: Antiviral activity against Hepatitis B virus. It counts as functional, organism-based.
Series [11] relates to Respiratory syncytial virus. In words: Antiviral activity against RSV A2 strain infected in vervet monkey MA-104 cells assessed as reduction in virus induced cytopathic effect incubated for 6 days by neutral red dye based spectrophotometric analysis. Format: functional, organism-based. The conditions noted are these: time 6.0 day.
Series [12] relates to dengue virus type 2. In words: Antiviral activity against DENV-2 New Guinea C infected in human Huh-7 cells assessed as reduction in virus induced cytopathic effect incubated for 6 days by visual analysis. The conditions noted are these: Huh-7, 144 h. Format: functional, organism-based.
Series [13] has as its system Tacaribe virus. In words: Antiviral activity against TCRV TRVL 11573 strain infected in African green monkey Vero 76 cells assessed as reduction in virus induced cytopathic effect incubated for 7 days by neutral red dye based spectrophotometric analysis. Format: functional, organism-based. As to conditions: Mammarenavirus tacaribeense, time 7.0 day.
The test system of series [14] is Herpesviridae sp. In words: Antiviral activity against HSV. It counts as functional, organism-based.
Series [15] can be described thus: Cytotoxicity against human Huh-7 cells assessed as reduction in cell viability by visual analysis. Format: toxicity, cell-based.
In series [16] the test system is dengue virus type 2. In words: Antiviral activity against DENV-2 New Guinea C infected in human Huh-7 cells assessed as reduction in virus induced cytopathic effect incubated for 6 days by neutral red dye based spectrophotometric analysis. It counts as functional, organism-based. The conditions noted are these: Huh-7, 144 h.
The nature of series [17]: Cytotoxicity against human Huh-7 cells assessed as reduction in cell viability by neutral red dye based spectrophotometric analysis. Format: toxicity.
For series [18], the system named is Middle East respiratory syndrome-related coronavirus. In words: Antiviral activity against MERS-CoV EMC strain infected in […] cells assessed as reduction in virus induced cytopathic effect incubated for 5 days by neutral red dye based spectrophotometric analysis. It counts as functional, organism-based. As to conditions: time 5.0 day.
The test system of series [19] is enterovirus D68. In words: Antiviral activity against EV-68 US/KY/14-18953 infected in human RD cells assessed as reduction in virus induced cytopathic effect incubated for 3 days by visual analysis. The conditions noted are these: Enterovirus D, US/KY/14-18953, RD, 72 h. Format: functional, organism-based.
The subject of series [20] is enterovirus D68. In words: Antiviral activity against EV-68 US/KY/14-18953 infected in human RD cells assessed as reduction in virus induced cytopathic effect incubated for 3 days by neutral red dye based spectrophotometric analysis. Format: functional, organism-based. The conditions noted are these: Enterovirus D, US/KY/14-18953, RD, 72 h.
Series [21] is described as follows: Selectivity index, ratio of CC50 for cytotoxicity against human RD cells to EC50 for antiviral activity against EV-68 US/KY/14-18953 infected in human RD cells by visual analysis. It counts as toxicity, cell-based. The conditions noted are these: read-out: Ratio CC50/EC50.
A short description of series [22]: Selectivity index, ratio of CC50 for cytotoxicity against human RD cells to EC50 for antiviral activity against EV-68 US/KY/14-18953 infected in human RD cells by neutral red dye based spectrophotometric analysis. Format: toxicity, cell-based. The conditions noted are these: read-out: Ratio CC50/EC50.

Take `CC(C)S(=O)(=O)n1c(N)nc2ccc(/C(=N/O)c3ccccc3)cc21` [ENVIROXIME]: the CC50 in series [1] turned out to be 5.5 µM; in series [2] it was 10 µM.

Consider `Nc1ccn([C@@H]2O[C@H](CO)[C@@H](O)[C@H]2F)c(=O)n1`, for which the EC50 was 0.95 µM in [3] and 0.7 µM in [6]. Besides, the CC50 in [4] and in series [7] was over 100 µM each time. The selectivity ratio is over 110 in [5] and over 140 in series [8].

Take `O=c1ccn([C@@H]2O[C@H](CO)[C@H](OCP(=O)(O)O)[C@H]2O)c(=O)[nH]1`: the result in series [9], in series [10], in series [11], in [13], in series [14] and in series [18] was inactive. Further, the EC50 is 82 µM in series [3]; over 100 µM in [12]; over 84 µM in series [16]; 72 µM in [6]; over 100 µM in [19]; over 100 µM in [20]. Moreover, the CC50 in series [4], in [15], in series [17], in series [1], in series [7] and in series [2] was over 100 µM throughout. Further, the selectivity ratio in series [5] was over 1.2; in series [8], over 1.4.

Take `O=c1[nH]cnc2c1ncn2[C@@H]1O[C@H](CO)[C@H](OCP(=O)(O)O)[C@H]1O`: the selectivity ratio in series [21] was over 2.2; in [22] it was over 1.1. Moreover, the result in series [9], in series [10], in [11], in series [13], in series [14] and in series [18] was inactive. Also, the EC50 in [3] was over 100 µM; in series [12], over 100 µM; in series [16], over 100 µM; in series [6], over 100 µM; in series [19] it was 46 µM; in [20] it was 89 µM. Moreover, the CC50 in series [4], in series [15], in series [17], in series [1], in [7] and in series [2] was over 100 µM each time.

Regarding `NC(=O)c1ncn([C@@H]2O[C@H](CO)[C@@H](O)[C@H]2O)n1`, the outcome in series [9], in series [11] and in [13] was inactive.

Regarding `Nc1nc2c(ncn2[C@@H]2O[C@H](CO)[C@H](OCP(=O)(O)O)[C@H]2O)c(=O)[nH]1`, the selectivity ratio in series [21] is 1.6; in [22] it was over 2.5. For the same compound, the outcome in [9], in series [10], in series [11], in series [13], in series [14] and in [18] was inactive. The EC50 is over 100 µM in series [3]; over 100 µM in series [12]; over 100 µM in [16]; over 100 µM in series [6]; 47 µM in [19]; 40 µM in series [20]. Moreover, the CC50 in [4] is over 100 µM; in [15] it was over 100 µM; in series [17], over 100 µM; in [1] it was over 100 µM; in series [7] it was over 100 µM; in [2], 73 µM.

With `Nc1ccn([C@@H]2O[C@H](CO)[C@H](OCP(=O)(O)O)[C@H]2O)c(=O)n1`, the outcome in series [9], in series [10], in [11], in series [13], in series [14] and in series [18] was inactive. The EC50 in series [3] is 49 µM; in series [12] it was over 100 µM; in [16] it was over 100 µM; in [6], 72 µM; in [19], over 100 µM; in series [20], over 100 µM. Further, the CC50 in [4], in series [15], in series [17], in [1], in [7] and in [2] was over 100 µM in each case. Further, the selectivity ratio in series [5] was over 2; in series [8], over 1.4.

With `Nc1ncnc2c1ncn2[C@@H]1O[C@H](CO)[C@H](OCP(=O)(O)O)[C@H]1O`, the selectivity ratio in series [21] was over 6.3; in series [22] it was over 5; in series [5], over 7.1; in [8], over 8.3. Further, the outcome in [9], in series [10], in [11], in series [13], in series [14] and in [18] was inactive. Besides, the EC50 was 14 µM in series [3]; over 100 µM in series [12]; over 100 µM in [16]; 12 µM in series [6]; 16 µM in series [19]; 20 µM in series [20]. For the same compound, the CC50 in series [4], in series [15], in series [17], in series [1], in [7] and in series [2] was over 100 µM each time.

Usually CC50 stands for the concentration at which the toxic effect on the cells reaches its halfway point. The term EC50 denotes the midpoint of the concentration-response curve.
